# According to ChEMBL document CHEMBL5728583, “Galactoside inhibitor of galectins” (2021):
# Experiments:
# [1] = target: Galectin-1 (Homo sapiens, UniProt P09382); test: fluorescence anisotropy assay: The affinity of Example 1-33 for galectins were determined by a fluorescence anisotropy assay where the compound was used as an inhibitor of the interaction between galectin and a fluorescein tagged saccharide probe as described Sörme, P., Kahl-Knutsson, B., Huflejt, M., Nilsson, U. J., and Leffler H. (2004) Fluorescence polarization as an analytical tool to …
# Sequence of Galectin-1 (P09382 whole entry): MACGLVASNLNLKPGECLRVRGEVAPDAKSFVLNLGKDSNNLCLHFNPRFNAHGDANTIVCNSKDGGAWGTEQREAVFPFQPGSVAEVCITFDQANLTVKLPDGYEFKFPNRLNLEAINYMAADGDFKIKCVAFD
# [2] = target: Galectin-3 (Homo sapiens, UniProt P17931); test: fluorescence anisotropy assay: The affinity of Example 1-33 for galectins were determined by a fluorescence anisotropy assay where the compound was used as an inhibitor of the interaction between galectin and a fluorescein tagged saccharide probe as described Sörme, P., Kahl-Knutsson, B., Huflejt, M., Nilsson, U. J., and Leffler H. (2004) Fluorescence polarization as an analytical tool to evaluate galectin-ligand interactions. Anal. Biochem. 334: 36-47, (Sörme et al., 2004) and Monovalent interactions of Galectin-1 By Salomonsson, Emma; Larumbe, Amaia; Tejler, Johan; Tullberg, Erik; Rydberg, Hanna; Sundin, Anders; Khabut, Areej; Frejd, Torbjorn; Lobsanov, Yuri D.; Rini, James M.; et al, From Biochemistry (2010), 49(44), 9518-9532, (Salomonsson et al., 2010).
# Sequence of Galectin-3 (P17931 whole entry): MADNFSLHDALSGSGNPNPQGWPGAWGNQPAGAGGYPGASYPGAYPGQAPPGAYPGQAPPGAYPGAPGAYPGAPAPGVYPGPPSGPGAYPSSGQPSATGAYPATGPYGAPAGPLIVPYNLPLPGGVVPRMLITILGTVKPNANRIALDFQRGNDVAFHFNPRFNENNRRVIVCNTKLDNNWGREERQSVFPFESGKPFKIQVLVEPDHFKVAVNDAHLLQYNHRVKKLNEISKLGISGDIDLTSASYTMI
compound,measurement,setting,value
OC[C@H]1O[C@H](Sc2ccc(Cl)c(Cl)c2)[C@H](O)[C@@H](n2cc(-c3nc(O)cs3)nn2)[C@H]1O,Kd,[1],650 nM
same,Kd,[2],1700 nM
